Laboratory results from ChEMBL document CHEMBL1153871, “Antiplasmodial and antitrypanosomal activities of aminobicyclo[2.2.2]octyl omega-aminoalkanoates” (Eur J Med Chem, 2009).

Legend:
[1] = system: L6; assay: Cytotoxicity against rat L6 cells; assay type: cell-based
[2] = system: Plasmodium falciparum; assay: Antimalarial activity against chloroquine and pyrimethamine-resistant Plasmodium falciparum K1; assay type: functional, organism-based
[3] = system: Trypanosoma brucei rhodesiense; assay: Antitrypanosomal activity against Trypanosoma brucei rhodesiense STIB900 by microplate assay; assay type: functional, organism-based
[4] = Selectivity index, ratio of IC50 for rat L6 cells to IC50 for Trypanosoma brucei rhodesiense STIB900; assay type: toxicity, cell-based; settings: read-out: Ratio IC50

Compound | IC50 ([1]; l6) [nM] | IC50 [2] [nM] | IC50 [3] [nM] | IC50 ([1]; Rattus norvegicus, L6) [nM] | IC50 ([2]; Plasmodium falciparum, K1) [nM] | IC50 ([3]; Trypanosoma brucei, STIB900) [nM] | selectivity ratio [4]
O=C(CN1CCCC1)OC1CC2(N3CCCCC3)CC(c3ccccc3)C1C(c1ccccc1)C2 (racemic) | 52000 | 740 | 880 |  |  |  | 
CCN(CC)CC(=O)OC1CC2(N3CCCCC3)CC(c3ccccc3)C1C(c1ccccc1)C2 (racemic) | 61300 | 770 | 1530 |  |  |  | 
O=C(CN1CCCCC1)OC1CC2(N3CCCCC3)CC(c3ccccc3)C1C(c1ccccc1)C2 (racemic) | > 185000 | 1410 | 5420 |  |  |  | 
CN(C)C12CC(OC(=O)CCN3CCC(O)CC3)C(C(c3ccccc3)C1)C(c1ccccc1)C2 (racemic) |  |  |  | 89200 | 2250 | 950 | 
O=C(CCN1CCCC1)OC1CC2(N3CCCC3)CC(c3ccccc3)C1C(c1ccccc1)C2 (racemic) |  |  |  | 21900 | 370 | 120 | 
O=C(CCN1CCC(O)CC1)OC1CC2(N3CCCC3)CC(c3ccccc3)C1C(c1ccccc1)C2 (racemic) |  |  |  | 35600 | 1910 | 1430 | 
O=C(CCN1CCC(O)CC1)OC1CC2(N3CCCCC3)CC(c3ccccc3)C1C(c1ccccc1)C2 (racemic) |  |  |  | 28500 | 170 | 980 | 
CCN(CC)CCC(=O)OC1CC2(N(C)C)CC(c3ccccc3)C1C(c1ccccc1)C2 (racemic) |  |  |  | 23600 | 430 | 110 | 
CCN(CC)CCC(=O)OC1CC2(N3CCCCC3)CC(c3ccccc3)C1C(c1ccccc1)C2 (racemic) |  |  |  | 22900 | 190 | 150 | 
O=C(CN1CCC(O)CC1)OC1CC2(N3CCCCC3)CC(c3ccccc3)C1C(c1ccccc1)C2 (racemic) |  |  |  | > 179000 |  | 3810 | 
CN(C)C12CC(OC(=O)CN3CCC(O)CC3)C(C(c3ccccc3)C1)C(c1ccccc1)C2 (racemic) |  |  |  | 102000 | 2160 | 2060 | 
O=C(CCN1CCCCC1)OC1CC2(N3CCCC3)CC(c3ccccc3)C1C(c1ccccc1)C2 (racemic) |  |  |  | 17800 | 280 | 310 | 
CN(C)C12CC(OC(=O)CCN3CCCCC3)C(C(c3ccccc3)C1)C(c1ccccc1)C2 (racemic) |  |  |  | 25800 | 400 | 210 | 
CCN(CC)CCC(=O)OC1CC2(N3CCCC3)CC(c3ccccc3)C1C(c1ccccc1)C2 (racemic) |  |  |  | 19200 | 300 | 110 | 
O=C(CCN1CCCC1)OC1CC2(N3CCCCC3)CC(c3ccccc3)C1C(c1ccccc1)C2 (racemic) |  |  |  | 12500 | 250 | 380 | 
CN(C)C12CC(OC(=O)CCN3CCCC3)C(C(c3ccccc3)C1)C(c1ccccc1)C2 (racemic) |  |  |  | 26000 | 550 | 76 | 341
O=C(CCN1CCCCC1)OC1CC2(N3CCCCC3)CC(c3ccccc3)C1C(c1ccccc1)C2 (racemic) |  |  |  | 54600 | 260 | 910 | 
O=C(CN1CCC(O)CC1)OC1CC2(N3CCCC3)CC(c3ccccc3)C1C(c1ccccc1)C2 (racemic) |  |  |  | 93400 | 860 | 1050 | 
Nc1nc(N)nc(Nc2ccc([As]3SCC(CO)S3)cc2)n1 (stereo not given) [MELARSOPROL] |  |  |  |  |  | 5 | 
